# Assay results published in US6734337B2, “Acetyl-coenzyme A carboxylase 2 as a target in the regulation of fat burning, fat accumulation, energy homeostasis and insulin action” (Research Development Foundation, priority 2000, dated 2004).
# What was measured:
# [1] = test system: soleus muscles of Acc2-/- mutant mice; assay: [3H]palmitate oxidation in isolated soleus muscle of Acc2-/- mutant mice; format: cell-based, mouse; conditions: 30 min, 37° C.
# Experimental: Where indicated, insulin (10 nM) or isoproterenol (3 mM) was added, and the vials were incubated at 37° C. under a humidified O2/CO2 (95/5%) atmosphere for 30 min. At the end of the incubation period, the [^3H]2O was separated from the labeled substrate and counted. To provide further evidence for the role of ACC2-synthesized malonyl-CoA as the regulator of fatty acid oxidation, fatty acid oxidation was investigated in the mouse soleus muscle, a […] muscle tissue responsive to hormonal regulation ([…]., Gamble, J., Patel, A., Kemp, […]., and Ruderman, W. B., J Biol Chem., 272:13255-13261 1997; Alam, N., and E. D. Saggerson. Biochem J., 334:233-41, 1998; […]., and […]. Proc Natl Acad Sci. USA 92, 4011-4015, 1995; […]., and […] Biol Chem. 272, 10669-10677, 1997; -Ha, J., J. K. Lee, […], and K.-H. Him. Proc Natl Acad Sci USA. 93:11466-11470, 1996; Rasmussen, B. B. and Wolfe, R. R., Ann. Rev. Natr. 19:463, 1999; and, Bressler, R. and […] Biol Chem. 236:1643-1651, 1961). […] Insulin is known to activate both ACC1 and ACC2 and, thereby, to induce fatty acid synthesis and inhibit fatty acid oxidation, respectively. […] Faseb J. 3:2250-2256, 1989; Thampy, K. G., and […]. Biol. Chem. 263, 6454-6458, 1988; […]., and […]. Biol. Chem. 265, 6330-6338, 1990; Mohamed, A. H., W. Y. Huang, W. Huang, K. V. Venkatachalam, and […] Biol Chem. 269:6859-6865. 1994; and, Hardie, D. G. Prog Lipid Res. 28:117-146, 1989). The role of ACC2 in the regulation of mitochondrial oxidation of fatty acids was further confirmed by using isoproterenol, an analog of glucagon, which produces effects opposite of those of insulin. Adding isoproterenol to wild-type soleus muscle increased palmitate oxidation by 50% (FIG. 4), raising it to nearly the same level as that found in the mutant muscle cells. […] This additional increase may be due to factors independent of malonyl-CoA ([…]. Lopez-[…]. Bai, X. Luo, and M. E. Pape. Faseb J. 3:2250-2256, 1989).
# ACC = conditions: mice treated with fatty acid synthase inhibitors; cited from earlier work
# [2] = test system: soleus muscles of wild-type (Acc2+/+) mice; assay: [3H]palmitate oxidation in isolated soleus muscle of wild-type mice; format: cell-based, mouse; conditions: isoproterenol 3 mM, 30 min, 37° C.
# Experimental: Where indicated, insulin (10 nM) or isoproterenol (3 mM) was added, and the vials were incubated at 37° C. under a humidified O2/CO2 (95/5%) atmosphere for 30 min. At the end of the incubation period, the [^3H]2O was separated from the labeled substrate and counted. To provide further evidence for the role of ACC2-synthesized malonyl-CoA as the regulator of fatty acid oxidation, fatty acid oxidation was investigated in the mouse soleus muscle, a […] muscle tissue responsive to hormonal regulation ([…]., Gamble, J., Patel, A., Kemp, […]., and Ruderman, W. B., J Biol Chem., 272:13255-13261 1997; Alam, N., and E. D. Saggerson. Biochem J., 334:233-41, 1998; […]., and […]. Proc Natl Acad Sci. USA 92, 4011-4015, 1995; […]., and […] Biol Chem. 272, 10669-10677, 1997; -Ha, J., J. K. Lee, […], and K.-H. Him. Proc Natl Acad Sci USA. 93:11466-11470, 1996; Rasmussen, B. B. and Wolfe, R. R., Ann. Rev. Natr. 19:463, 1999; and, Bressler, R. and […] Biol Chem. 236:1643-1651, 1961). […] Insulin is known to activate both ACC1 and ACC2 and, thereby, to induce fatty acid synthesis and inhibit fatty acid oxidation, respectively. […] Faseb J. 3:2250-2256, 1989; Thampy, K. G., and […]. Biol. Chem. 263, 6454-6458, 1988; […]., and […]. Biol. Chem. 265, 6330-6338, 1990; Mohamed, A. H., W. Y. Huang, W. Huang, K. V. Venkatachalam, and […] Biol Chem. 269:6859-6865. […]
compound,measurement,setting,value
insulin,effect on fatty acid oxidation,[1]; insulin 10 nM,did not affect
CCCCCCCCCCCCCCOc1ccc(C(=O)O)o1 [5-(tetradeculoxy)-2 furoic acid],effect on food uptake,ACC,increases food uptake
CC(C)NCC(O)c1ccc(O)c(O)c1 (centres unmarked) [isoproterenol],increase of fatty acid (palmitate) oxidation,[2],50%
same,effect on fatty acid oxidation,[1]; isoproterenol 3 mM,further increased
same,effect on fatty acid oxidation,"[1]; isoproterenol 3 mM, listed as Isoproterenol",little effect
